Results published in patent US8575360B2, “Derivatives of 6,7-dihydro-5H-imidazo[1,2-a]imidazole-3-carboxylic acid amides” (Boehringer Ingelheim International GmbH, priority 2009, dated 2013).

Biological target: T1, LFA-1 (CD18/CD11a) binding to ICAM-1 (Homo sapiens, UniProt P05107+P20701)
T1 construct: followed by purified LFA-1 (in buffer of 50 mM triethylamine, 150 mM NaCl, 1% beta octylglucoside)
Assay: LFA-1/Biotin-sICAM-1 AlphaScreen assay: inhibition of LFA-1 binding to ICAM-1
Conditions: 37° C. 90 minutes, highest compound concentration 1 μM
Source text: Assay to Determine Inhibition of LFA-1 Binding to ICAM-1
This assay protocol is designed to study the direct antagonism, by a test compound, of the interaction of ICAM-1 with the Leukointegrin CD18/CD11a (LFA-1).
The LFA-1/Biotin-sICAM-1 molecular assay measures the ability of test compounds to inhibit binding of LFA-1 to Biotinylated-sICAM using AlphaScreen technology (Ref: Wilson, J, Rossi, C P, Carboni, S, Fremaux, C, Perrin, D, Soto, C, Kosco-Vilbois, M, and Scheer, A: A Homogeneous 384-Well High-Throughput Binding Assay for a TNF Receptor Using Alphascreen Technology. J Biomol Screen 2003; 8:522-532) that uses TS2/4(anti-LFA-1)-custom conjugated AlphaLisa acceptor beads and streptavidin-coated donor beads from PerkinElmer. The assay was performed in white OptiPlates-384 in a volume of 60 μL using assay buffer (Dulbecco's PBS containing calcium and magnesium, 2 mM MgCl2, 0.1 mM PMSF, 0.1% BSA, pH 7.1). To each well, Biotin-sICAM was added followed by purified LFA-1 (in buffer of 50 mM triethylamine, 150 mM NaCl, 1% beta octylglucoside, 2 mM MgCl2 neutralized to pH with 1M Tris-HCl, pH 7.5). For compound testing, compound was added in 5 uL to the above in 25 uL. LFA-1 and Biotin-sICAM-1 were used at concentrations that would yield a signal to background ratio of 8-10. The highest concentration of compound was 1 μM in 1% DMSO. Positive controls were wells without compound containing LFA-1, while blanks were wells without both compound and LFA-1. Plates were mixed and incubated at 37° C. for 90 minutes. This was followed by addition of 15 μL/well TS2/4-conjugated acceptor beads diluted in PBS containing 0.1% BSA for a final concentration of 10 μg/mL. The plates were mixed and incubated in the dark for 30 minutes at room temperature followed by addition of 15 μL/well streptavidin-coated donor beads diluted in PBS containing 0.1% BSA at a final concentration of 15 μg/mL. The plates were mixed and incubated in the dark for 60 minutes at room temperature and then read on an EnVision Multilabel Reader using AlphaScreen 384-well OptiPlate protocol.

T1 sequence (P20701 26-1170): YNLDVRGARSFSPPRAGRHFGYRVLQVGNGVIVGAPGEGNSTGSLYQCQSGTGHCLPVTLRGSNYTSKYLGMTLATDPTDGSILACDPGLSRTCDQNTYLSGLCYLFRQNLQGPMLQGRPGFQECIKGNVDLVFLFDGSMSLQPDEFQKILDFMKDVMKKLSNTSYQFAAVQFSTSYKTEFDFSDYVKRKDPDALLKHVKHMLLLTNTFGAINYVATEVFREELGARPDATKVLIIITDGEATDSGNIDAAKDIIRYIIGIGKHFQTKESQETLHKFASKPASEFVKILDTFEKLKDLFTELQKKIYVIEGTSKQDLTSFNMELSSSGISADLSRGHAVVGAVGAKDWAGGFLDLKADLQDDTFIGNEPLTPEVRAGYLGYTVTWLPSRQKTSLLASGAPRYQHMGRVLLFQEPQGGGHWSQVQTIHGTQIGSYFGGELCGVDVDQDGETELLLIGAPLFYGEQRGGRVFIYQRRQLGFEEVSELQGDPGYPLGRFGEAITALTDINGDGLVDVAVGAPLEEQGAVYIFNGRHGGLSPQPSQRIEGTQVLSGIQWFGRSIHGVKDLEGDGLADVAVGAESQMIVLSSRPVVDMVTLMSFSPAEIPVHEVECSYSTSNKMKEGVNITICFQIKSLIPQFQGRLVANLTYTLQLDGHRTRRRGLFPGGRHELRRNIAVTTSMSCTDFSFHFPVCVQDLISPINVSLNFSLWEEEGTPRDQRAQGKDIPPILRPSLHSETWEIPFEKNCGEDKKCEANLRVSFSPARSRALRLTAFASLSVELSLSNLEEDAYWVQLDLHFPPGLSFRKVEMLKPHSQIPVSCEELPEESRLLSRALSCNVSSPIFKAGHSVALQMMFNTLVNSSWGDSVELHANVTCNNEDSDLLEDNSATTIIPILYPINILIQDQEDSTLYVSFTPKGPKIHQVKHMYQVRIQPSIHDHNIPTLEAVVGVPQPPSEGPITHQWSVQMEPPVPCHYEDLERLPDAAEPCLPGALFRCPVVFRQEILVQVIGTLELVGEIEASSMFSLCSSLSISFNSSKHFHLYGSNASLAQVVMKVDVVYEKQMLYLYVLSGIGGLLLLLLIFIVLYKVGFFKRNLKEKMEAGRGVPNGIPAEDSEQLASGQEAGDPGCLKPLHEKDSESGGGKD
T1 sequence (P05107 23-769 partner): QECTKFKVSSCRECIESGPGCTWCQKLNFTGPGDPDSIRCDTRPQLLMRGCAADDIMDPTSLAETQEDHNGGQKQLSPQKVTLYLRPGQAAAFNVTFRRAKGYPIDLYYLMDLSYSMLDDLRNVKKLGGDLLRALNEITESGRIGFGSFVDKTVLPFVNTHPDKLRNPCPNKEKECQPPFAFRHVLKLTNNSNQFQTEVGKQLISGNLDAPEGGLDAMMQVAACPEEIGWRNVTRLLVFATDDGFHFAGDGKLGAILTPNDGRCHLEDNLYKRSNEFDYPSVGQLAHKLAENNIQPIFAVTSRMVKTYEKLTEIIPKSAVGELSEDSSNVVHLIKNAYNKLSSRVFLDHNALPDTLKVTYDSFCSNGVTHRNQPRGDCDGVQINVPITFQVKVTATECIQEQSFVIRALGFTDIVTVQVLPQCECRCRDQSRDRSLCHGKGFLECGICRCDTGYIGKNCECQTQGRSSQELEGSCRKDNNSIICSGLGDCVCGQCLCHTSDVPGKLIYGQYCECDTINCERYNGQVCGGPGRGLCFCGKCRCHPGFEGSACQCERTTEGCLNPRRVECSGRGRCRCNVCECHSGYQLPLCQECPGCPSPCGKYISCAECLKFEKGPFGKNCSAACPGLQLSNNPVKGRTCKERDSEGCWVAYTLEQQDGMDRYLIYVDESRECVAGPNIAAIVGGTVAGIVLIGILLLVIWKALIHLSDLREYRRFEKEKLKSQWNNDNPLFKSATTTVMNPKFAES

| IC50 | SMILES |
| --- | --- |
| 0.65 nM | C[C@@]1(Cc2ccc(OC(F)(F)F)cc2)C(=O)N(c2cc(Cl)c(F)c(Cl)c2)c2ncc(C(=O)NC3(C(=O)NC4(c5ncc(-c6ccc(CO)nc6)cn5)CC4)CC3)n21 [Compound 110] |
| 1.6 nM | Cc1nn(C)cc1-c1cnc(C2(NC(=O)C3(NC(=O)c4cnc5n4[C@](C)(Cc4ccc(C#N)cc4)C(=O)N5c4cc(Cl)c(F)c(Cl)c4)CC3)CC2)nc1 [Compound 111] |
| 0.54 nM | Cc1ccc(-c2cnc(C3(NC(=O)C4(NC(=O)c5cnc6n5[C@](C)(Cc5ccc(C#N)cc5)C(=O)N6c5cc(Cl)c(F)c(Cl)c5)CC4)CC3)nc2)cn1 [Compound 112] |
| 1.8 nM | C[C@@]1(Cc2ccc(C#N)cc2)C(=O)N(c2cc(Cl)c(F)c(Cl)c2)c2ncc(C(=O)NC3(C(=O)NC4(c5ccc(-c6cccc(S(N)(=O)=O)c6)cn5)CC4)CC3)n21 [Compound 115] |
| 1.3 nM | C[C@@H](NC(=O)C1(NC(=O)c2cnc3n2[C@](C)(Cc2ccc(OC(F)(F)F)cc2)C(=O)N3c2cc(Cl)c(F)c(Cl)c2)CC1)c1ccc(-c2ccc(CO)nc2)cn1 [Compound 116] |
| 0.85 nM | C[C@@H](NC(=O)[C@@H](NC(=O)c1cnc2n1[C@](C)(Cc1ccc(C#N)cc1)C(=O)N2c1cc(Cl)c(F)c(Cl)c1)[C@@H](C)O)c1ccc(-c2ccc(CO)nc2)cn1 [Compound 119] |
| 1.1 nM | Cc1nn(C)cc1-c1ccc(C(C)NC(=O)C(NC(=O)c2cnc3n2C(C)(Cc2ccc(C#N)cc2)C(=O)N3c2cc(Cl)c(F)c(Cl)c2)C(C)O)nc1 (centres unmarked) [Compound 121] |
| 1.4 nM | Cc1nn(C)cc1-c1ccc(C2(NC(=O)C3(NC(=O)c4cnc5n4[C@](C)(Cc4ccc(C#N)cc4)C(=O)N5c4cc(Cl)c(F)c(Cl)c4)CC3)CC2)nc1 [Compound 123] |
| 0.34 nM | CC1(Cc2ccc(C#N)cc2)C(=O)N(c2cc(Cl)cc(Cl)c2)c2ncc(C(=O)NC3(C(=O)NC4(c5ccc(-c6cnoc6)cn5)CC4)CC3)n21 (centres unmarked) [Compound 127] |
| 0.22 nM | C[C@@]1(Cc2ccc(C#N)cc2)C(=O)N(c2cc(Cl)cc(Cl)c2)c2ncc(C(=O)NC3(C(=O)NC4(c5ccc(-c6cn[nH]c6)cn5)CC4)CC3)n21 [Compound 129] |
| 0.99 nM | C[C@@]1(Cc2ccc(C#N)cc2)C(=O)N(c2cc(Cl)cc(Cl)c2)c2ncc(C(=O)NC3(C(=O)NC4(c5ccc(-c6ccc(C(N)=O)cc6)cn5)CC4)CC3)n21 [Compound 131] |
| 0.72 nM | C[C@@]1(Cc2ccc(C#N)cc2)C(=O)N(c2cc(Cl)cc(Cl)c2)c2ncc(C(=O)NC3(C(=O)NC4(c5ccc(-c6ccc(S(N)(=O)=O)cc6)cn5)CC4)CC3)n21 [Compound 132] |
| 1.5 nM | C[C@@]1(Cc2ccc(C#N)cc2)C(=O)N(c2cc(Cl)cc(Cl)c2)c2ncc(C(=O)NC3(C(=O)NC4(c5ccc(-c6ccc(NS(C)(=O)=O)cc6)cn5)CC4)CC3)n21 [Compound 133] |
| 0.64 nM | C[C@@]1(Cc2ccc(C#N)cc2)C(=O)N(c2cc(Cl)cc(Cl)c2)c2ncc(C(=O)NC3(C(=O)NC4(c5ccc(-c6ccc(S(C)(=O)=O)cc6)cn5)CC4)CC3)n21 [Compound 134] |
| 0.64 nM | C[C@@]1(Cc2ccc(C#N)cc2)C(=O)N(c2cc(Cl)cc(Cl)c2)c2ncc(C(=O)NC3(C(=O)NC4(c5ccc(-c6ccc(O)cc6)cn5)CC4)CC3)n21 [Compound 135] |
| 0.56 nM | C[C@@]1(Cc2ccc(C#N)cc2)C(=O)N(c2cc(Cl)cc(Cl)c2)c2ncc(C(=O)NC3(C(=O)NC4(c5ccc(-c6ccc(CO)cc6)cn5)CC4)CC3)n21 [Compound 136] |
| 0.64 nM | C[C@@]1(Cc2ccc(C#N)cc2)C(=O)N(c2cc(Cl)cc(Cl)c2)c2ncc(C(=O)NC3(C(=O)NC4(c5ccc(-c6cccc(S(N)(=O)=O)c6)cn5)CC4)CC3)n21 [Compound 138] |
| 0.53 nM | C[C@@]1(Cc2ccc(C#N)cc2)C(=O)N(c2cc(Cl)cc(Cl)c2)c2ncc(C(=O)NC3(C(=O)NC4(c5ccc(-c6cccc(S(C)(=O)=O)c6)cn5)CC4)CC3)n21 [Compound 141] |
| 1.7 nM | C[C@@]1(Cc2ccc(C#N)cc2)C(=O)N(c2cc(Cl)cc(Cl)c2)c2ncc(C(=O)NC3(C(=O)NC4(c5ccc(-c6cccc(O)c6)cn5)CC4)CC3)n21 [Compound 142] |
| 1.9 nM | C[C@@]1(Cc2ccc(C#N)cc2)C(=O)N(c2cc(Cl)cc(Cl)c2)c2ncc(C(=O)NC3(C(=O)NC4(c5ccc(-c6cccc(CO)c6)cn5)CC4)CC3)n21 [Compound 143] |
| 1.6 nM | C[C@@]1(Cc2ccc(C#N)cc2)C(=O)N(c2cc(Cl)cc(Cl)c2)c2ncc(C(=O)NC3(C(=O)NC4(c5ccc(-c6cnc7[nH]ccc7c6)cn5)CC4)CC3)n21 [Compound 146] |
| 0.33 nM | Cn1cc(-c2ccc(C3(NC(=O)C4(NC(=O)c5cnc6n5[C@](C)(Cc5ccc(C#N)cc5)C(=O)N6c5cc(Cl)cc(Cl)c5)CC4)CC3)nc2)cn1 [Compound 149] |
| 0.68 nM | Cc1nn(C)cc1-c1ccc(C2(NC(=O)C3(NC(=O)c4cnc5n4[C@](C)(Cc4ccc(OC(F)(F)F)cc4)C(=O)N5c4cc(Cl)c(F)c(Cl)c4)CC3)CC2)cn1 [Compound 150] |
| 1.1 nM | CC(O)C(NC(=O)c1cnc2n1C(C)(Cc1ccc(C#N)cc1)C(=O)N2c1cc(Cl)c(F)c(Cl)c1)C(=O)NC1(c2ccc(-c3cnn(C)c3)nc2)CC1 (centres unmarked) [Compound 152] |
| 0.76 nM | Cc1nn(C)cc1-c1ccc(C2(NC(=O)[C@H](CO)NC(=O)c3cnc4n3[C@](C)(Cc3ccc(C#N)cc3)C(=O)N4c3cc(Cl)c(F)c(Cl)c3)CC2)nc1 [Compound 154] |
| 0.56 nM | Cc1nn(C)cc1-c1ccc(C2(NC(=O)[C@@H](NC(=O)c3cnc4n3[C@](C)(Cc3ccc(C#N)cc3)C(=O)N4c3cc(Cl)c(F)c(Cl)c3)[C@@H](C)O)CC2)nc1 [Compound 155] |
| 0.91 nM | Cc1n[nH]c(C)c1-c1ccc(C2(NC(=O)C3(NC(=O)c4cnc5n4[C@](C)(Cc4ccc(C#N)cc4)C(=O)N5c4cc(Cl)c(F)c(Cl)c4)CC3)CC2)nc1 [Compound 157] |
| 1.3 nM | C[C@@]1(Cc2ccc(C#N)cc2)C(=O)N(c2cc(Cl)c(F)c(Cl)c2)c2ncc(C(=O)NC3(C(=O)NC4(c5ccc(-c6ccc(S(C)(=O)=O)cc6)cn5)CC4)CC3)n21 [Compound 158] |
| 0.59 nM | C[C@@H](NC(=O)C1(NC(=O)c2cnc3n2[C@](C)(Cc2ccc(C#N)cc2)C(=O)N3c2cc(Cl)c(F)c(Cl)c2)CC1)c1ccc(-c2ccc(CO)nc2)nc1 [Compound 160] |
